This note sets out measurements from US10829478B2, “5-[3-[piperazin-1-yl]-3-oxo-propyl]-imidazolidine-2,4-dione derivatives as ADAMTS 4 and 5 inhibitors for treating e.g. osteoarthritis” (Galapagos NV, priority 2016, dated 2020).

Where two headings read alike, the source gives them in different places.

Assay [1] addresses human ADAMTS4 (Homo sapiens (Human), UniProt O75173). Nature of the assay: hADAMTS-4 TBIS-1 cleavage assay, Protocol 2. It is filed as biochemical.
Assay [2] addresses human ADAMTS-5 (Homo sapiens (Human), UniProt Q9UNA0). As to the kind of experiment: hADAMTS-5 TBIS-1 cleavage assay, Protocol 3. It is filed as biochemical. The following applies: 90 min at 37° C., read-out: hADAMTS-5 potency IC50.
Method: The reaction is initiated by adding to the assay plate TBIS-1 (10 μL, 4.5 μM, Anaspec) in the same buffer.
Finally, the fluorescence is read on the Envision (Perkin Elmer) after an incubation of 90 min at 37° C. (Excitation 485 nm, emission 530).
For assay [3], the target named is human ADAMTS6 (Homo sapiens (Human), UniProt Q9UKP5). As to the kind of experiment: hADAMTS-6 fluorescent based protease assay (520 MMP FRET substrate XII). It is filed as biochemical. The following applies: 37° C. for 2 h; read-out: hADAMTS-6 potency IC50. The method, boiled down:
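ADAMTS6 (0.73 nM final) in 25 mM Tris pH 8.0, 0.05% CHAPS, 2.5 mM CaCl2 with compound dilution series (top 20 μM, 1/5 steps). Reaction started with 520 MMP FRET Substrate XII, incubated 2 h at 37 °C. Substrate cleavage read by fluorescence ex485/em530; IC50 determined.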

The target of assay [4] is human MMP13 (Homo sapiens (Human), UniProt P45452). Nature of the assay: hMMP13 assay, Protocol 2 (390 MMP FRET Substrate I, Enzo enzyme). It is filed as biochemical. Particulars: Protocol 2, human MMP13 (Enzo Life Sciences), read-out: hMMP-13 potency IC50. How it is done:
Human MMP13 is preactivated by incubated the enzyme in the same buffer complemented with 1 mM freshly prepared p-Aminophenylmercuric acetate (AMPA) for 1 h at 37° C.

In assay [5] the target is human MMP14 (Homo sapiens (Human), UniProt P50281). As to the kind of experiment: hMMP14 assay (390 MMP FRET Substrate I). The following applies: human MMP14 (Biomol), read-out: hMMP-14 potency IC50. It is filed as biochemical.
Method: The basis for the assay is the cleavage of the substrate 390 MMP FRET Substrate I (Anaspec Cat #AS-27076) by human MMP14 (Biomol, Cat #SE-259).
The reaction is initiated by adding to the assay plate 390 MMP FRET Substrate I (10 μL, 2.5 μM) in the same buffer.
Finally, the fluorescence is read on the Envision (Perkin Elmer) after an incubation of 60 min at room temperature (Excitation 485 nm, Emission 530).
The target in assay [6] is human TACE (Homo sapiens (Human), UniProt P78536). As to the kind of experiment: biochemical.
Method: Finally, the fluorescence is read on the Envision (Perkin Elmer) after an incubation of 75 min at room temperature (Excitation 485 nm, Emission 530).
[7] abbreviates: Protocol 2, 180 min at 37° C., read-out: ADAMTS4 potency IC50.

Sequence of human ADAMTS6 (Q9UKP5 other isoform, or with tags, fused parts or gaps): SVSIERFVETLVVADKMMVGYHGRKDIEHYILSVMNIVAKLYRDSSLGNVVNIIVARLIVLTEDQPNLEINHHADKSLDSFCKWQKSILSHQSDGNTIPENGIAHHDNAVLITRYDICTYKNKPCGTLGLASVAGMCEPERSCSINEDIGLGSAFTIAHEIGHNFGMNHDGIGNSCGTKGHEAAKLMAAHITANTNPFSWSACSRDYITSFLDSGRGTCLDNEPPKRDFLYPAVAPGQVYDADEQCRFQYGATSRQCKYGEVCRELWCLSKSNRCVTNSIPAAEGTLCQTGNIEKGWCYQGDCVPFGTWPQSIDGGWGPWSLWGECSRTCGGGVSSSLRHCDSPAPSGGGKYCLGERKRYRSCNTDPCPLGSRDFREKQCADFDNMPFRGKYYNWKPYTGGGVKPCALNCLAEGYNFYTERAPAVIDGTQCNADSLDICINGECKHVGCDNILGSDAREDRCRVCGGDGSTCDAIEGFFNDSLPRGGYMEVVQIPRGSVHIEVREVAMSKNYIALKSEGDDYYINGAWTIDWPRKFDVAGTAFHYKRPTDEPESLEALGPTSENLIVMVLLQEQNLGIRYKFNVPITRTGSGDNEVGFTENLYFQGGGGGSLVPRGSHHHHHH
Sequence of human ADAMTS4 (O75173 213-837): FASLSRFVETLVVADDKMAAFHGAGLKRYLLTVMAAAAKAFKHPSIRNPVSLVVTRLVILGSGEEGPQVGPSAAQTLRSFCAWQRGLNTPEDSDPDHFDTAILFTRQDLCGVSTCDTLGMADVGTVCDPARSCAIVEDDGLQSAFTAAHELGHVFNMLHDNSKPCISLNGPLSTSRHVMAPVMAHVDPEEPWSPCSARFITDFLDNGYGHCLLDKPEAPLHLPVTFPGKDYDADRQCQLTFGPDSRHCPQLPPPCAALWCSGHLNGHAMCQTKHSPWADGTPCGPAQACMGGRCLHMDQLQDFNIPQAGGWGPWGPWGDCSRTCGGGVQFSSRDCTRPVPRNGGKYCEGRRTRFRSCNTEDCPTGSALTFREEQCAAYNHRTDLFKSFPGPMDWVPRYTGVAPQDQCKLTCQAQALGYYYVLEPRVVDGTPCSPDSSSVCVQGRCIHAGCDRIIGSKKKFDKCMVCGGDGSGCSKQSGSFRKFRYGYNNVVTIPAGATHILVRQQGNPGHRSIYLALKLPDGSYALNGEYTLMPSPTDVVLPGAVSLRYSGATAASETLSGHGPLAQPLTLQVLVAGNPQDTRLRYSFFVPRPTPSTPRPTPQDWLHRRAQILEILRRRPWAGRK
Sequence of human ADAMTS-5 (Q9UNA0 262-930): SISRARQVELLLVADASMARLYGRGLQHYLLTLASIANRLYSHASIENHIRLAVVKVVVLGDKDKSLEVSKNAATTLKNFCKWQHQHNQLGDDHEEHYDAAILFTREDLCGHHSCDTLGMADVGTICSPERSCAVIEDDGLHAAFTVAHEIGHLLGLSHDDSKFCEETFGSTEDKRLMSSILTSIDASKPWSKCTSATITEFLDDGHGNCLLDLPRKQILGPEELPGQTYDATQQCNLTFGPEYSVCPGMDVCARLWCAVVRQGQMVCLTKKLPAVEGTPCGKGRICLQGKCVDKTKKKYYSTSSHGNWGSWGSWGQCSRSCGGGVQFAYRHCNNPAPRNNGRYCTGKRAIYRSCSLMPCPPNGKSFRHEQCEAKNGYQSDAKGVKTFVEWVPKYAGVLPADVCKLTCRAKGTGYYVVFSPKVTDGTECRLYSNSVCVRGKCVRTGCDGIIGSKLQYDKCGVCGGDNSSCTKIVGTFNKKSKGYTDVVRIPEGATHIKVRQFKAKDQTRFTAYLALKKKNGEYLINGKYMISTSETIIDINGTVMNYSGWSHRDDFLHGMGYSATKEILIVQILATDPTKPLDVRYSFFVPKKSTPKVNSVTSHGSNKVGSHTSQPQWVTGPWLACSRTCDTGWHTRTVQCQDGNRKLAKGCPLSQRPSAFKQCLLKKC
Sequence of human TACE (P78536 215-671): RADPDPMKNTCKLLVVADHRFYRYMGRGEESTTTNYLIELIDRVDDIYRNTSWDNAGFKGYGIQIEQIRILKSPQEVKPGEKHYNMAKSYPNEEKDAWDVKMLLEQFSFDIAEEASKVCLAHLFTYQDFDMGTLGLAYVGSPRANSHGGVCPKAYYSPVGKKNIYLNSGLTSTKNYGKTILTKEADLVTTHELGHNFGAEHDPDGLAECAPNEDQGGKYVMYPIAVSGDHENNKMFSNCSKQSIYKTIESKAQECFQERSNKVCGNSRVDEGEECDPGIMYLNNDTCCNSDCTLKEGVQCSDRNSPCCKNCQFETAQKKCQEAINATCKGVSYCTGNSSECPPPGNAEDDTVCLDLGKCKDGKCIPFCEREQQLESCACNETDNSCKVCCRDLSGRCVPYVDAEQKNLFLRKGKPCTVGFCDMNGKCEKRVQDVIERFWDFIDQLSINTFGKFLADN

On to `CCc1cc(N2CCN(C(=O)[C@@H](C)C[C@@]3(COC)NC(=O)NC3=O)C[C@@H]2C)cc(OC)c1Cl` (mixture of isomers) [Cpd 117, 5-[3-[(3S)-4-(4-chloro-3-ethyl-5-methoxy-phenyl)-3-methyl-piperazin-1-yl]-2-methyl-3-oxo-propyl]-5-(methoxymethyl)imidazolidine-2,4-dione], for which the IC50 in assay [1] (setting [7]) was more than 100 nM; in assay [2] it was 50 to 100 nM; in assay [3], 0.001 to 25 nM; in assay [4], more than 100 nM; in assay [5], more than 100 nM; in assay [6], more than 100 nM.
Take `COC[C@]1(C[C@H](C)C(=O)N2CCN(c3cc(F)c(Cl)c(OC)c3)[C@@H](C)C2)NC(=O)NC1=O` (mixture of isomers) [Cpd 121, 5-[3-[(3S)-4-(4-chloro-3-fluoro-5-methoxy-phenyl)-3-methyl-piperazin-1-yl]-2-methyl-3-oxo-propyl]-5-(methoxymethyl)imidazolidine-2,4-dione]: the half-maximal inhibitory concentration (IC50) in assay [1] is 50 to 100 nM; in assay [2], 25 to 50 nM; in assay [3] it was 0.001 to 25 nM; in assay [4], more than 100 nM; in assay [5], more than 100 nM; in assay [6], more than 100 nM.
For the molecule `COc1cc(N2CCN(C(=O)C(C)CC3(C)NC(=O)NC3=O)C[C@@H]2C)cc(C)c1Cl` (mixture of isomers) [Cpd 125, 5-[3-[(3S)-4-(4-chloro-3-methoxy-5-methyl-phenyl)-3-methyl-piperazin-1-yl]-2-methyl-3-oxo-propyl]-5-methyl-imidazolidine-2,4-dione], the IC50 in assay [1] is 50 to 100 nM; in assay [2] it was 25 to 50 nM; in assay [3], 0.001 to 25 nM; in assay [4] it was more than 100 nM; in assay [5] it was more than 100 nM; in assay [6], more than 100 nM.
Take `COc1cc(N2CCN(C(=O)[C@@H](C)C[C@H]3NC(=O)NC3=O)CC2)cc(F)c1F` (stereo in doubt) [Cpd 51, 5-[3-[4-(3,4-difluoro-5-methoxy-phenyl)piperazin-1-yl]-2-methyl-3-oxo-propyl]imidazolidine-2,4-dione]: the IC50 in assay [1] (setting [7]) is more than 100 nM; in assay [2], more than 100 nM; in assay [3] it was 0.001 to 25 nM; in assay [4] it was more than 100 nM; in assay [5], more than 100 nM; in assay [6], more than 100 nM.
As for `COc1cncc(N2CCN(C(=O)[C@@H](C)C[C@@]3(C4CC4)NC(=O)NC3=O)C[C@@H]2C)c1` (stereo in doubt) [Cpd 64, 5-cyclopropyl-5-[3-[(3 S)-4-(5-methoxy-3-pyridyl)-3-methyl-piperazin-1-yl]-2-methyl-3-oxo-propyl]imidazolidine-2,4-dione], the half-maximal inhibitory concentration (IC50) in assay [1] (setting [7]) was more than 100 nM; in assay [2], 50 to 100 nM; in assay [3] it was 50 to 100 nM; in assay [4], more than 100 nM; in assay [5], more than 100 nM; in assay [6] it was more than 100 nM.
As to `COc1cc(N2CCN(C(=O)[C@@H](C)C[C@@]3(C)NC(=O)NC3=O)C[C@@H]2C)cc(F)c1Cl` (stereo in doubt) [Cpd 120, 5-[3-[(3S)-4-(4-chloro-3-fluoro-5-methoxy-phenyl)-3-methyl-piperazin-1-yl]-2-methyl-3-oxo-propyl]-5-methyl-imidazolidine-2,4-dione], the IC50 is 50 to 100 nM in assay [1]; 0.001 to 25 nM in assay [2]; 0.001 to 25 nM in assay [3]; more than 100 nM in assay [4]; more than 100 nM in assay [5]; more than 100 nM in assay [6].
`COc1cc(N2CCN(C(=O)CC[C@@]3(C)NC(=O)NC3=O)C[C@@H]2C)ccc1Cl` [Cpd 55, (5R)-5-[3-[(3 S)-4-(4-chloro-3-methoxy-phenyl)-3-methyl-piperazin-1-yl]-3-oxo-propyl]-5-methyl-imidazolidine-2,4-dione]: the IC50 was more than 100 nM in assay [1] (setting [7]); 50 to 100 nM in assay [2]; 0.001 to 25 nM in assay [3]; more than 100 nM in assay [4]; more than 100 nM in assay [5]; more than 100 nM in assay [6].
On to `CC[C@]1(C[C@H](C)C(=O)N2CCN(c3cc(F)c(F)c(OC)c3)CC2)NC(=O)NC1=O` [Cpd 57, (5R)-5-[(2S)-3-[4-(3,4-difluoro-5-methoxy-phenyl)piperazin-1-yl]-2-methyl-3-oxo-propyl]-5-ethyl-imidazolidine-2,4-dione], for which the IC50 in assay [1] was 50 to 100 nM; in assay [2], 25 to 50 nM; in assay [3], 0.001 to 25 nM; in assay [4] it was more than 100 nM; in assay [5], more than 100 nM; in assay [6] it was more than 100 nM.
With `COc1cc(Cl)c(C)cc1N1CCN(C(=O)CCC2(C)NC(=O)NC2=O)CC1` (centres unmarked) [Cpd 58, 5-[3-[4-(4-chloro-2-methoxy-5-methyl-phenyl)piperazin-1-yl]-3-oxo-propyl]-5-methyl-imidazolidine-2,4-dione], the IC50 is more than 100 nM in assay [1] (setting [7]); more than 100 nM in assay [2]; 25 to 50 nM in assay [3]; more than 100 nM in assay [4]; more than 100 nM in assay [6].
For `COc1cc(N2CCN(C(=O)CCC3(c4cccc(C)n4)NC(=O)NC3=O)C[C@@H]2C)cc(F)c1F` (stereo partly drawn) [Cpd 61, 5-[3-[(3S)-4-(3,4-difluoro-5-methoxy-phenyl)-3-methyl-piperazin-1-yl]-3-oxo-propyl]-5-(6-methyl-2-pyridyl)imidazolidine-2,4-dione], the IC50 in assay [1] (setting [7]) was more than 100 nM; in assay [2], 25 to 50 nM; in assay [3], 0.001 to 25 nM; in assay [4] it was more than 100 nM; in assay [5] it was more than 100 nM; in assay [6], more than 100 nM.
As for `COc1cc(N2CCN(C(=O)CC[C@@]3(C4CC4)NC(=O)NC3=O)C[C@@H]2C)cc(Cl)c1F` [Cpd 62, (5S)-5-[3-[(3S)-4-(3-chloro-4-fluoro-5-methoxy-phenyl)-3-methyl-piperazin-1-yl]-3-oxo-propyl]-5-cyclopropyl-imidazolidine-2,4-dione], the IC50 is 50 to 100 nM in assay [1]; 0.001 to 25 nM in assay [2]; 0.001 to 25 nM in assay [3]; more than 100 nM in assay [4]; more than 100 nM in assay [5]; more than 100 nM in assay [6].
Take `COc1cc(N2CCN(C(=O)CC[C@@]3(C)NC(=O)NC3=O)C[C@@H]2C)cc(Cl)c1F` [Cpd 63, (5R)-5-[3-[(3 S)-4-(3-chloro-4-fluoro-5-methoxy-phenyl)-3-methyl-piperazin-1-yl]-3-oxo-propyl]-5-methyl-imidazolidine-2,4-dione]: the IC50 in assay [1] (setting [7]) is more than 100 nM; in assay [2], 25 to 50 nM; in assay [3], 0.001 to 25 nM; in assay [4], more than 100 nM; in assay [5], more than 100 nM; in assay [6], more than 100 nM.
For the molecule `COc1cc(N2CCN(C(=O)CC[C@@]3(C4CC4)NC(=O)NC3=O)C[C@@H]2C)cc(F)c1Cl` [Cpd 65, (5S)-5-[3-[(3S)-4-(4-chloro-3-fluoro-5-methoxy-phenyl)-3-methyl-piperazin-1-yl]-3-oxo-propyl]-5-cyclopropyl-imidazolidine-2,4-dione], the IC50 in assay [1] was 50 to 100 nM; in assay [2], 0.001 to 25 nM; in assay [3], 0.001 to 25 nM; in assay [4] it was more than 100 nM; in assay [5], more than 100 nM; in assay [6] it was more than 100 nM.
On to `CCc1cc(N2CCN(C(=O)CC[C@@]3(C)NC(=O)NC3=O)CC2)ccc1Cl` [Cpd 71, (5R)-5-[3-[4-(4-chloro-3-ethyl-phenyl)piperazin-1-yl]-3-oxo-propyl]-5-methyl-imidazolidine-2,4-dione], for which the IC50 in assay [1] (setting [7]) is more than 100 nM; in assay [2] it was more than 100 nM; in assay [3], 25 to 50 nM; in assay [4], more than 100 nM; in assay [5] it was more than 100 nM; in assay [6], more than 100 nM.
Consider `COc1cc(N2CCN(C(=O)CC[C@@]3(C)NC(=O)NC3=O)CC2)cc(OC)c1F` [Cpd 74, (5R)-5-[3-[4-(4-fluoro-3,5-dimethoxy-phenyl)piperazin-1-yl]-3-oxo-propyl]-5-methyl-imidazolidine-2,4-dione], for which the half-maximal inhibitory concentration (IC50) in assay [1] (setting [7]) is more than 100 nM; in assay [2], more than 100 nM; in assay [3] it was 0.001 to 25 nM; in assay [4] it was more than 100 nM; in assay [5] it was more than 100 nM; in assay [6], more than 100 nM.
In the case of `CC(C)c1cc(N2CCN(C(=O)CC[C@@]3(C)NC(=O)NC3=O)C[C@@H]2C)ccc1Cl` [Cpd 85, (5R)-5-[3-[(3 S)-4-(4-chloro-3-isopropyl-phenyl)-3-methyl-piperazin-1-yl]-3-oxo-propyl]-5-methyl-imidazolidine-2,4-dione], the IC50 in assay [1] (setting [7]) was more than 100 nM; in assay [3], 0.001 to 25 nM; in assay [4] it was more than 100 nM.
As for `CCc1cc(N2CCN(C(=O)CCC3(CCC(=O)OC(C)(C)C)NC(=O)NC3=O)C[C@@H]2C)ccc1Cl` (stereo partly drawn) [Cpd 114, tert-butyl 3-[4-[3-[(3S)-4-(4-chloro-3-ethyl-phenyl)-3-methyl-piperazin-1-yl]-3-oxo-propyl]-2,5-dioxo-imidazolidin-4-yl]propanoate], the results for the IC50 in assay [1] (setting [7]), in assay [3] and in assay [4] were more than 100 nM, 0.001 to 25 nM and more than 100 nM, respectively.
Take `CCc1cc(N2CCN(C(=O)CCC3(CCC(=O)O)NC(=O)NC3=O)C[C@@H]2C)ccc1Cl` (some centres unmarked) [Cpd 116, 3-[4-[3-[(3 S)-4-(4-chloro-3-ethyl-phenyl)-3-methyl-piperazin-1-yl]-3-oxo-propyl]-2,5-dioxo-imidazolidin-4-yl]propanoic acid]: the values for the IC50 in assay [1] (setting [7]), in assay [3] and in assay [4] were more than 100 nM, 0.001 to 25 nM and more than 100 nM, respectively.

By IC50 is commonly meant the point on the concentration scale where inhibition reaches its midpoint.
